Here are results for 23 compounds from patent US8703805B2 (Exelixis Patent Company LLC, priority 2005, dated 2014).

This assay has as its system LXRα and/or LXRβ. In words: LXR/LXRE co-transfection assay (luciferase reporter, CV-1 cells). The note with it: IC50 or EC50 for LXR (LXRα and/or LXRβ, not distinguished), tested as described in Example 109, CV-1 cells. It is filed as cell-based, human. In outline:
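Luciferase readout after 20 h compound exposure at 37 °C in CV-1 cells transiently expressing human LXRα or LXRβ with RXRα and an LXRE-driven reporter. Dose-response over 8 points at ½-log spacing, 4 wells each, fitted for EC50/IC50; values average ≥3 independent experiments, efficacy as % of high control.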
Background: A reporter such as luciferase makes a cellular process visible.

Consider `CC(C)(C(=O)O)c1cccc(-c2ccc(-c3cc(C(F)(F)F)nn3-c3ncccc3C(F)(F)F)s2)c1` [Example 1165, 2-methyl-2-[3-(5-{3-(trifluoromethyl)-1-[3-(trifluoromethyl)pyridin-2-yl]-1H-pyrazol-5-yl}-2-thienyl)phenyl]propanoic acid], for which the concentration giving a half-maximal response (EC50) fell in the range of 1 to 10 µM.
As for `CC(C)(C(=O)O)c1cccc(-c2ccc(-c3cc(C(F)(F)F)nn3Cc3ccc(Cl)s3)s2)c1` [Example 1166, 2-[3-(5-{1-[(5-chloro-2-thienyl)methyl]-3-(trifluoromethyl)-1H-pyrazol-5-yl}-2-thienyl)phenyl]-2-methylpropanoic acid], the figure is below 1 µM.
As for `CC(C)S(=O)(=O)c1cccc(-c2ccc(-c3cc(C(F)(F)F)nn3-c3ccccc3Cl)cc2)c1` [Example 1167, 1-(2-chlorophenyl)-5-{3′-[(1-methylethyl)sulfonyl]biphenyl-4-yl}-3-(trifluoromethyl)-1H-pyrazole], the figure is below 1 µM; as for `CC(C)S(=O)(=O)c1cccc(-c2ccc(-c3cc(C(F)(F)F)nn3-c3ccccc3C(F)(F)F)cc2)c1` [Example 1168, 5-{3′-[(1-methylethyl)sulfonyl)biphenyl-4-yl}-3-(trifluoromethyl)-1-[2-(trifluoromethyl)phenyl]-1H-pyrazole], below 1 µM.
`CC(C)S(=O)(=O)c1cccc(-c2ccc(-c3cc(C(F)(F)F)nn3-c3ncccc3C(F)(F)F)s2)c1` [Example 1169, 2-[5-(5-{3-[(1-methylethyl)sulfonyl)phenyl}-2-thienyl)-3-(trifluoromethyl)-1H-pyrazol-1-yl]-3-(trifluoromethyl)pyridine] had an EC50 below 1 µM.
`COC(=O)c1cc(-c2ccc(-c3cccc(S(=O)(=O)C(C)C)c3)s2)n(-c2ncccc2C(F)(F)F)n1` [Example 1170, methyl 5-(5-{3-[(1-methylethyl)sulfonyl]phenyl}-2-thienyl)-1-[3-(trifluoromethyl)pyridin-2-yl]-1H-pyrazole-3-carboxylate]: the EC50 was below 1 µM.
As for `CN(C)C(C)(C)c1cc(-c2ccc(-c3cccc(S(C)(=O)=O)c3)s2)n(-c2ccccc2Cl)n1` [Example 1172, 2-[1-(2-chlorophenyl)-5-{5-[3-(methylsulfonyl)phenyl]-2-thienyl}-1H-pyrazol-3-yl]-N,N-dimethylpropan-2-amine], the figure is below 1 µM.
In the case of `CCC(=O)c1cc(-c2ccc(-c3cccc(S(C)(=O)=O)c3)s2)n(-c2ccccc2Cl)n1` [Example 1173, 1-[1-(2-chlorophenyl)-5-{5-[3-(methylsulfonyl)phenyl]-2-thienyl}-1H-pyrazol-3-yl]propan-1-one], the EC50 was below 1 µM.
As for `CCC(O)(CC)c1cc(-c2ccc(-c3cccc(S(C)(=O)=O)c3)s2)n(-c2ccccc2Cl)n1` [Example 1174, 3-[1-(2-chlorophenyl)-5-{5-[3-(methylsulfonyl)phenyl]-2-thienyl}-1H-pyrazol-3-yl]pentan-3-ol], the figure is below 1 µM; as for `CCC(O)c1cc(-c2ccc(-c3cccc(S(C)(=O)=O)c3)s2)n(-c2ccccc2Cl)n1` (centres unmarked) [Example 1175, 1-[1-(2-chlorophenyl)-5-{5-[3-(methylsulfonyl)phenyl]-2-thienyl}-1H-pyrazol-3-yl]propan-1-ol], below 1 µM.
`C/C(=N\O)c1cc(-c2ccc(-c3cccc(S(C)(=O)=O)c3)s2)n(-c2ccccc2Cl)n1` [Example 1176, (1E)-1-[1-(2-chlorophenyl)-5-{5-[3-(methylsulfonyl)phenyl]-2-thienyl}-1H-pyrazol-3-yl]ethanone oxime] came in with an EC50 below 1 µM.
As for `CO/N=C(\C)c1cc(-c2ccc(-c3cccc(S(C)(=O)=O)c3)s2)n(-c2ccccc2Cl)n1` [Example 1177, (1E)-1-[1-(2-chlorophenyl)-5-{5-[3-(methylsulfonyl)phenyl]-2-thienyl}-1H-pyrazol-3-yl]ethanone O-methyloxime], the figure is below 1 µM; as for `CC(C)(O)c1cc(-c2ccc(-c3cccc(S(C)(=O)=O)c3)s2)n(-c2ncccc2C(F)(F)F)n1` [Example 1178, 2-(5-{5-[3-(methylsulfonyl)phenyl]-2-thienyl}-1-[3-(trifluoromethyl)pyridin-2-yl]-1H-pyrazol-3-yl)propan-2-ol], below 1 µM.
As for `COC(=S)c1cc(-c2ccc(-c3cccc(S(C)(=O)=O)c3)s2)n(-c2ccccc2C(F)(F)F)n1` [Example 1179, O-methyl 5-{5-[3-(methylsulfonyl)phenyl]-2-thienyl}-1-[2-(trifluoromethyl)phenyl]-1H-pyrazol-3-carbothioate], the figure is 1 to 10 µM; as for `CCS(=O)(=O)c1cccc(-c2ccc(-c3cc(C(C)(C)C#N)nn3-c3ccccc3Cl)s2)c1` [Example 1180, 2-[1-(2-chlorophenyl)-5-{5-[3-(ethylsulfonyl)phenyl]-2-thienyl}-1H-pyrazol-3-yl]-2-methylpropanenitrile], below 1 µM; as for `CC(O)(c1cc(-c2ccc(-c3cccc(S(C)(=O)=O)c3)s2)n(-c2ccccc2Cl)n1)C(F)(F)F` (centres unmarked) [Example 1181, 2-[1-(2-chlorophenyl)-5-{5-[3-(methylsulfonyl)phenyl]-2-thienyl}-1H-pyrazol-3-yl]-1,1,1-trifluoropropan-2-ol], below 1 µM.
The value for `CC(O)(c1cc(-c2ccc(-c3cccc(S(C)(=O)=O)c3)s2)n(-c2ccccc2Cl)n1)C(F)(F)F` (centres unmarked) [Example 1182, 2-[1-(2-chlorophenyl)-5-{5-[3-(methylsulfonyl)phenyl]-2-thienyl}-1H-pyrazol-3-yl]-1,1,1-trifluoropropan-2-ol] was below 1 µM.
Regarding `CC(=O)c1cc(-c2ccc(-c3cccc(S(=O)(=O)C(C)C)c3)s2)n(-c2ncccc2C(F)(F)F)n1` [Example 1183, 1-{5-(5-{3-[(1-methylethyl)sulfonyl)phenyl}-2-thienyl)-1-[3-(trifluoromethyl)pyridin-2-yl]-1H-pyrazol-3-yl}ethanone], the EC50 was below 1 µM.
As for `CC(C)S(=O)(=O)c1cccc(-c2ccc(-c3cc(C(C)(C)O)nn3-c3ncccc3C(F)(F)F)s2)c1` [Example 1184, 2-{5-(5-{3-[(1-methylethyl)sulfonyl]phenyl}-2-thienyl)-1-[3-(trifluoromethyl)pyridin-2-yl]-1H-pyrazol-3-yl}propan-2-ol], the figure is 1 to 10 µM; as for `CC(C)S(=O)(=O)c1cccc(-c2ccc(-c3cc(C(C)(C)O)nn3-c3ccccc3Cl)s2)c1` [Example 1185, 2-[1-(2-chlorophenyl)-5-(5-{3-[(1-methylethyl)sulfonyl]phenyl}-2-thienyl)-1H-pyrazol-3-yl]propan-2-ol], below 1 µM; as for `COC(=O)c1cccc(-n2nc(C(F)(F)F)cc2-c2ccc(-c3cccc(S(C)(=O)=O)c3)s2)c1` [Example 1186, methyl 3-[5-{5-[3-(methylsulfonyl)phenyl]-2-thienyl}-3-(trifluoromethyl)-1H-pyrazol-1-yl]benzoate], below 1 µM.
As for `CC(C)(O)c1cccc(-n2nc(C(F)(F)F)cc2-c2ccc(-c3cccc(S(C)(=O)=O)c3)s2)c1` [Example 1187, 2-{3-[5-{5-[3-(methylsulfonyl)phenyl]-2-thienyl}-3-(trifluoromethyl)-1H-pyrazol-1-yl]phenyl}propan-2-ol], the figure is below 1 µM; as for `CS(=O)(=O)c1cccc(-c2ccc(-c3cc(C4(C#N)CC4)nn3-c3ccccc3Cl)s2)c1` [Example 1188, 1-[1-(2-chlorophenyl)-5-{5-[3-(methylsulfonyl)phenyl]-2-thienyl}-1H-pyrazol-3-yl]cyclopropanecarbonitrile], below 1 µM.

The EC50 is the concentration needed to bring the measured effect to its halfway point. A lower EC50 goes with greater potency.
